{"source": "patent US20100160207A1", "about": "“Feedback Prodrug” (University of Georgia Research Foundation, Inc., priority 2006, published 2010)", "key": {"[1]": {"tested_on": "α-galactosidase", "experiment": "Negative enzyme control experiment, α-galactosidase", "type": "biochemical", "details": "0.1 Unit, MES buffer pH 6.5, 37° C., 20 h", "procedure": "(§1) Compounds 1 and 2 were subjected to an α-glucosidase, α-fucosidase and α-galactosidase.\n(§2) Negative enzyme control experiments. A solution of compound 1 or 2 (0.004 mmol) and α-glucosidase, α-galactosidase or α-L-fucosidase (0.1 Unit) in MES buffer (0.05 M; pH 6.8 for α-glucosidase, pH 6.5 for α-galactosidase or pH 5.5 for α-L-fucosidase; 1 ml) was incubated at 37° C. for 20 h, after which the reaction mixture was freezing-dried, and the solid residue was analyzed by ^1H NMR spectrometry and mass spectrometry."}, "[2]": {"experiment": "Stability measurements in deuterated sodium acetate buffer by 1H NMR", "type": "physicochemical", "details": "0.4 mM, sodium acetate buffer pH 4.0, 37° C., 6 days", "procedure": "Stability measurements. A solution of compound 1 or 2 (0.4 mM) in deuterated sodium acetate buffer (100 mM; pH 4.0; 0.2 ml) in a NMR tube was incubated at 37° C. for 6 days. ^1H NMR spectra were recorded every day."}, "[3]": {"tested_on": "α-glucosidase", "experiment": "Negative enzyme control experiment, α-glucosidase", "type": "biochemical", "details": "0.1 Unit, MES buffer pH 6.8, 37° C., 20 h", "procedure": "as §1, §2"}, "[4]": {"molecular_target": "T1, human lysosomal mannosidase (HLM) (Homo sapiens, UniProt O00754)", "T1 sequence (O00754 50-1011)": "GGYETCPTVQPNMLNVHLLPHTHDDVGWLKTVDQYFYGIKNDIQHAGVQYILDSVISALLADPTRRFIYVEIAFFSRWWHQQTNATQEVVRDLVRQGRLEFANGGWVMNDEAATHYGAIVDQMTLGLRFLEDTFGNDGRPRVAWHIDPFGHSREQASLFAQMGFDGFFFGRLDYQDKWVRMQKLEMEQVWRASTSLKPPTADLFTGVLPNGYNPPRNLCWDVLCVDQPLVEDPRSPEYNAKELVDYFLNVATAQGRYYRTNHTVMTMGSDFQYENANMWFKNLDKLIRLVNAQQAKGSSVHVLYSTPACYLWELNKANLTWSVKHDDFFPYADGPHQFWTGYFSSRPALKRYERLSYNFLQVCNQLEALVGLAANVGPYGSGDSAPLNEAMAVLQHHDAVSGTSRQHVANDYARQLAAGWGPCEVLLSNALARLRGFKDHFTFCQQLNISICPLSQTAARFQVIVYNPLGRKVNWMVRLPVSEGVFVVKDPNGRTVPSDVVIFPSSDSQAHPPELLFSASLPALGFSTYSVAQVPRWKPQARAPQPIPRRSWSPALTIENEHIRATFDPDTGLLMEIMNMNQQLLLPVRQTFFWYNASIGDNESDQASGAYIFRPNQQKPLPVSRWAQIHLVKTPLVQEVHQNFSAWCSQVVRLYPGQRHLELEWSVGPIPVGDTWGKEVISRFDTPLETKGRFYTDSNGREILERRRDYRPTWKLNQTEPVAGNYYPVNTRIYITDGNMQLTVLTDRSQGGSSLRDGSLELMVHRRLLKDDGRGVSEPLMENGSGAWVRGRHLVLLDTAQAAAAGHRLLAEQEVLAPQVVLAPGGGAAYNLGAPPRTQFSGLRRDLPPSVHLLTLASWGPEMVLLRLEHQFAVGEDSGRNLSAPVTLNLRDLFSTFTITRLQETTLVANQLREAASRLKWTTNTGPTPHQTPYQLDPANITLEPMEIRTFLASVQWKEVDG", "experiment": "Enzymatic cleavage of prodrugs by human lysosomal mannosidase monitored by 1H NMR", "type": "biochemical", "details": "HLM 20 mU, 80 nmol compound, sodium acetate buffer pH 5.6, 37° C.", "procedure": "HLM ([…]) was added to a solution of 2 (a) or 1 (b) ([…]) in a deuterated sodium acetate buffer (100 mM, pH, 5.6, 0.2 mL) and the enzymatic cleavage was monitored by ^1H NMR (600 MHz).\nThe enzymatic cleavage of 1 and 2 by human lysosomal mannosidase (HLM) was monitored by ^1H NMR (600 MHz) (Wilson et al., Org. Lett. 1999, 1, 443) Thus, HLM (20 mU) was added to a solution of 1 or 2 (80 nmol) dissolved in a deuterated sodium acetate buffer (100 mM, pH 5.6, 0.2 mL). The progress of the reaction was monitored by the integration of key signals of the starting material, the intermediate and final product. […] In this case, the released mannostatin A (5) inhibits HLM terminating further hydrolysis of 1. Mannostatin A is a potent inhibitor of retaining α-mannosidases (Ki=90 nM, HLM) (Li et al., Chem. Bio. Chem. 2004, 5, 1220) and thus the release of low concentrations of the active compound is sufficient to abolish enzyme activity.\nKinetic measurements. A solution of compound 1 or 2 (0.08 μmol) and human lysosomal mannosidase (HLM, 0.02 Unit) in deuterated sodium acetate buffer (0.1 M; pH 5.6; 0.2 ml) was incubated at 37° C., and ^1H NMR spectra (600 MHz) were recorded at different time intervals. Relevant signals were integrated to determine the rate of enzymatic hydrolysis, and the appearance of the intermediate and the final product."}, "[5]": {"tested_on": "α-L-fucosidase", "experiment": "Negative enzyme control experiment, α-L-fucosidase", "type": "biochemical", "details": "0.1 Unit, MES buffer pH 5.5, 37° C., 20 h", "procedure": "as §1, §2"}, "[6]": {"experiment": "Treatment with cell lysate in the presence of swainsonine and kifunensine", "type": "in vitro ADME"}, "[7]": {"molecular_target": "T2, drosophila Golgi α-mannosidase II (dGMII) (Drosophila melanogaster, UniProt Q24451)", "T2 sequence (Q24451 1-1108)": "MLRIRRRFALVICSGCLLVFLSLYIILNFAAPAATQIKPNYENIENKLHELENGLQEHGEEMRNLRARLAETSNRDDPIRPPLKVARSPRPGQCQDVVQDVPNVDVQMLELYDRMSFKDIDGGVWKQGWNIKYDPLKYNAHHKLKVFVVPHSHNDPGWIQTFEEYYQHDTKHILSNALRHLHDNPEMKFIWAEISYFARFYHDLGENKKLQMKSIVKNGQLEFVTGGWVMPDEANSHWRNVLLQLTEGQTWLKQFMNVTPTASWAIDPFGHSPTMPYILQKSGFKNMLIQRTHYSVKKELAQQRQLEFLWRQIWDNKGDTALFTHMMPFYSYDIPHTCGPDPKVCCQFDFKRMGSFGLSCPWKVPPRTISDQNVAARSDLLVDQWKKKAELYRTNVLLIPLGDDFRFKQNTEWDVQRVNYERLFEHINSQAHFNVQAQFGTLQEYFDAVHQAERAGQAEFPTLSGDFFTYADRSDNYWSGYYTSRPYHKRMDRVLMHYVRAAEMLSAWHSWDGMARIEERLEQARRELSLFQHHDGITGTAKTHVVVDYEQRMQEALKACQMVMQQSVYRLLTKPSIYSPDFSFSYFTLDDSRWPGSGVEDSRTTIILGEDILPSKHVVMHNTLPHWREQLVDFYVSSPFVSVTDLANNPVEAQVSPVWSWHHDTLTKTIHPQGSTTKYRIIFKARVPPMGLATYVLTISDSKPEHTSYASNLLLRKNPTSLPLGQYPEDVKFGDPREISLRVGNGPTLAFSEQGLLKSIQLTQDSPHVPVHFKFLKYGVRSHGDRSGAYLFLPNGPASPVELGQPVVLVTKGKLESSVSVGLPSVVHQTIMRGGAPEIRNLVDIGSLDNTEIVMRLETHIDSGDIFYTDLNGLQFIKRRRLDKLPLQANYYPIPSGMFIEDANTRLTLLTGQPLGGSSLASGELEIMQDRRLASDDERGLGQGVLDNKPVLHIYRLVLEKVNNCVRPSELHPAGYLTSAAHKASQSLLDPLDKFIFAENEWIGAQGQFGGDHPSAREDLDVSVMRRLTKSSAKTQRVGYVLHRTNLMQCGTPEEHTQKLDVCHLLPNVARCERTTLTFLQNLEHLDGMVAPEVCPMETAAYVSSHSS", "experiment": "Affinity of N-benzyl mannostatin for Golgi α-mannosidase II", "type": "binding", "from_the_text": "The finding was ultimately explained by careful examination of the crystal structure of dGMII with the synthetic inhibitor; see Kawatkar et al., J. Am. Chem. Soc., 128, 8310-8319 (2006)."}}, "data": [{"compound": "CSC1C(O)C(O)C(O)C1NC(=O)OCc1ccc(O[C@H]2O[C@H](CO)[C@@H](O)[C@H](O)[C@@H]2O)cc1", "note": "(stereo partly drawn) [Compound 1, 1D-(1,2,3,4/5)-4-[4-(α-D-mannopyranosyloxy)-benzyloxycarbonyl]amino-5-(methylsulfanyl)cyclopentane-1,2,3-triol]", "values": [{"measurement": "decomposition by α-galactosidase", "setting": "[1]", "value": "No decomposition of product was observed"}, {"measurement": "decomposition in buffer", "setting": "[2]", "value": "No decomposition of product was observed"}, {"measurement": "decomposition by α-glucosidase", "setting": "[3]", "value": "No decomposition of product was observed"}, {"measurement": "enzymatic hydrolysis of the prodrug by HLM", "setting": "[4]", "value": "virtually no hydrolysis was observed"}, {"measurement": "decomposition by α-L-fucosidase", "setting": "[5]", "value": "No decomposition of product was observed"}, {"measurement": "decomposition in cell lysate", "setting": "[6]", "value": "did not lead to decomposition"}]}, {"compound": "CSC1C(O)C(O)C(O)C1NCc1ccccc1", "note": "(stereo not shown) [N-benzyl mannostatin]", "values": [{"measurement": "affinity compared with mannostatin A", "setting": "[7]", "value": "slightly reduced affinity"}]}]}
